Values quoted from earlier work, collected in patent US20210267912A1, “METHYL SULFONYL METHANE-CONTAINING COMPOSITION FOR PREVENTING OR ALLEVIATING OBESITY, FATTY LIVER, AND DIABETES” (priority 2018, published 2021).

Details: animal toxicity test

CS(C)(=O)=O [Methylsulfonylmethane]
Half lethal dose: more than 20 g per 1 kg of body weight
